Patent US11667621B2, “Antiestrogen compounds” (STEVENS INSTITUTE OF TECHNOLOGY, priority 2018, dated 2023)
Positions count from the first letter of the chain named.

What was measured:
Experiment in all cases: Luciferase assay, overexpressed ER (3×-ERE-TATA-Luciferase reporter)
Type in all cases: cell-based
[1] = molecular target: T1, HA-ERα wild type (Homo sapiens, UniProt P03372); settings: compound concentration 1 μM, 24 hours; read-out: Overexpressed ER (% Inhibition) WT
T1 construct: HA; expressed in transfected cells
T1 sequence (P03372 1-595): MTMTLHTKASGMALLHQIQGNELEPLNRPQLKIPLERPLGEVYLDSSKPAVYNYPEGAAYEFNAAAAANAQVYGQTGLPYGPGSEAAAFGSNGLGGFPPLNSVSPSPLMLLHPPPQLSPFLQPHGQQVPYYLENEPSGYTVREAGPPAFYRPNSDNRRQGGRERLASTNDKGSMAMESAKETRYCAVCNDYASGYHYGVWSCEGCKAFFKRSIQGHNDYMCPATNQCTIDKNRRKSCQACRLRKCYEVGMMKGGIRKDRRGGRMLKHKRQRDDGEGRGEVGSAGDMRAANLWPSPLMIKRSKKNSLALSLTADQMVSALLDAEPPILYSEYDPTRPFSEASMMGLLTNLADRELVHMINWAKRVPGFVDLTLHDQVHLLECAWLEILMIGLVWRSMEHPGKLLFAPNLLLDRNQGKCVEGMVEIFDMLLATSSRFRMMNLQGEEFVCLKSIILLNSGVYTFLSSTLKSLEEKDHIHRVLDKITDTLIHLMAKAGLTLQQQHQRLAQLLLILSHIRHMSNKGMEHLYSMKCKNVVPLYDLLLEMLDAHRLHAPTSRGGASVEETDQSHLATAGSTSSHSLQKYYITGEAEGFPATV
Procedure: (§1) Luciferase assays were performed to determine the efficacy of the example compounds at inhibiting ER or its mutants' ability to activate transcription of genes.
(§2) Cells were plated at a density of 0.15×10^6 per well of 24 well plates one day prior to transfection. Cells were transfected with 125 ng (per well) of HA-ERα wild type or mutants, 315 ng (per well) of 3×-ERE-TATA-Luciferase reporter and 50 ng (per well) of pRL-TK Renilla Luciferase plasmid, using Xtremegene (Roche). The cells were treated with the various compounds or Fulvestrant at the indicated doses a day after transfection for 24 hours and luciferase activities were determined using the Dual-Luciferase® Reporter Assay System (Promega) according to manufacturer's instructions. Luciferase bioluminescence measurements were performed with the Veritas™ Microplate Luminometer (Promega). All experiments were conducted in triplicate and the Firefly luciferase activity was normalized with the Renilla luciferase activity of each sample.

[2] = molecular target: T2, HA-ERα D538G (Homo sapiens, UniProt P03372, D538G); settings: compound concentration 1 μM, 24 hours
T2 construct: HA; expressed in transfected cells
T2 sequence (P03372 1-595 D538G): T1 sequence (P03372 1-595) with D538G
Procedure: as §1, §2

[3] = molecular target: T3, HA-ERα Y537S (Homo sapiens, UniProt P03372, Y537S); settings: compound concentration 1 μM, 24 hours
T3 construct: HA; expressed in transfected cells
T3 sequence (P03372 1-595 Y537S): T1 sequence (P03372 1-595) with Y537S
Procedure: as §1, §2

[4] = molecular target: T4, HA-ERα L536R (Homo sapiens, UniProt P03372, L536R); settings: compound concentration 1 μM, 24 hours
T4 construct: HA; expressed in transfected cells
T4 sequence (P03372 1-595 L536R): T1 sequence (P03372 1-595) with L536R
Procedure: as §1, §2

Row | Compound | inhibition at 1 µM [1] [%] | inhibition at 1 µM [2] [%] | inhibition at 1 µM [3] [%] | inhibition at 1 µM [4] [%]
1 | O=C(NCCCCOc1ccc(C2c3ccc(O)cc3CCC2c2ccccc2)cc1)[C@H]1CC[C@H](C(F)(F)F)CC1 (stereo partly drawn) [Example 22, (trans)-N-(4-(4-(6-Hydroxy-2-phenyl-1,2,3,4-tetrahydronaphthalen-1-yl)phenoxy)butyl)-4-(trifluoromethyl)cyclohexanecarboxamide] | -130 | – | – | –
2 | O=C1CCC(N2C(=O)c3cccc(OCCOCCOc4ccc(C(=C5C6CC7CC(C6)CC5C7)c5ccc(O)cc5)cc4)c3C2=O)C(=O)N1 (stereo not drawn) [Example 19, 4-(2-(2-(4-(Adamantan-2-ylidene(4-hydroxyphenyl)methyl)phenoxy)-ethoxy)ethoxy)-2-(2,6-dioxopiperidin-3-yl)isoindoline-1,3-dione] | 82 | 90 | -136 | 83
3 | Cc1c(-c2ccc(O)cc2)n(Cc2ccc(OCCCCNC(=O)[C@H]3CC[C@H](C(F)(F)F)CC3)cc2)c2ccc(O)cc12 [Example 20, (trans)-N-(4-(4-((5-Hydroxy-2-(4-hydroxyphenyl)-3-methyl-1H-indol-1-yl)methyl)phenoxy)butyl)-4-(trifluoromethyl)cyclohexanecarboxamide] | 83 | – | – | –
4 | Cc1c(-c2ccc(O)cc2)n(Cc2ccc(OCCCCNC(=O)C34CC5CC(CC(C5)C3)C4)cc2)c2ccc(O)cc12 [Example 21, N-(4-(4-((5-Hydroxy-2-(4-hydroxyphenyl)-3-methyl-1H-indol-1-yl)methyl)phenoxy)butyl)adamantane-1-carboxamide] | 82 | – | – | –
5 | O=C(COc1cccc2c1C(=O)N(C1CCC(=O)NC1=O)C2=O)NCCCCOc1ccc(C(=C2C3CC4CC(C3)CC2C4)c2ccc(O)cc2)cc1 (stereo not drawn) [Example 15, N-(4-(4-(Adamantan-2-ylidene(4-hydroxyphenyl)methyl)phenoxy)butyl)-2-((2-(2,6-dioxopiperidin-3-yl)-1,3-dioxoisoindolin-4-yl)oxy)acetamide] | 85 | 93 | -51 | 82
6 | O=C1CCC(N2C(=O)c3cccc(OCCOCCOCCOc4ccc(C(=C5C6CC7CC(C6)CC5C7)c5ccc(O)cc5)cc4)c3C2=O)C(=O)N1 (stereo not drawn) [Example 18, 4-(2-(2-(2-(4-(Adamantan-2-ylidene(4-hydroxyphenyl)methyl)phenoxy)-ethoxy)ethoxy)ethoxy)-2-(2,6-dioxopiperidin-3-yl)isoindoline-1,3-dione] | 80 | 86 | -75 | 84
7 | O=C(NCCCCOc1ccc(C(=C2CCCCC2)c2ccc(O)cc2)cc1)C1CCCCC1 [Example 23, N-(4-(4-(Cyclohexylidene(4-hydroxyphenyl)methyl)phenoxy)butyl)-cyclohexanecarboxamide] | -25 | 0 | -169 | 43

Other lines, results leading:

Row | inhibition at 1 µM [1] [%] | inhibition at 1 µM [2] [%] | inhibition at 1 µM [3] [%] | inhibition at 1 µM [4] [%] | Compound
8 | 77 | 42 | -39 | 36 | O=C(NCCCCOc1ccc(C(=C2CCCCC2)c2ccc(O)cc2)cc1)[C@H]1CC[C@H](C(F)(F)F)CC1 [Example 25, (trans)-N-(4-(4-(Cyclohexylidene(4-hydroxyphenyl)methyl)phenoxy)butyl)-4-(trifluoromethyl)cyclohexanecarboxamide]
9 | 79 | – | – | – | O=C(NCCCCOc1ccc(C(=C2C3CC4CC(C3)CC2C4)c2ccc(O)cc2)cc1)c1ccc(C(F)(F)F)cc1 [Example 33, N-(4-(4-(Adamantan-2-ylidene(4-hydroxyphenyl)methyl)phenoxy)butyl)-4-(trifluoromethyl)benzamide]
10 | 65 | – | – | – | O=C(CCC1CCCCC1)NCCCCOc1ccc(C(=C2C3CC4CC(C3)CC2C4)c2ccc(O)cc2)cc1 [Example 34, N-(4-(4-(Adamantan-2-ylidene(4-hydroxyphenyl)methyl)phenoxy)butyl)-3-cyclohexylpropanamide]
11 | 13 | 60 | -64 | 43 | O=C(NCCCCOc1ccc(Oc2c(-c3ccc(O)cc3)sc3cc(O)ccc23)cc1)C1CCC1 [Example 28, N-(4-(4-((6-Hydroxy-2-(4-hydroxyphenyl)benzo[b]thiophen-3-yl)oxy)phenoxy)butyl)cyclobutanecarboxamide]
12 | 36 | – | – | – | O=C(NCCCCOc1ccc(C(=C2C3CC4CC(C3)CC2C4)c2ccc(O)cc2)cc1)C1CC1 [Example 31, N-(4-(4-(Adamantan-2-ylidene(4-hydroxyphenyl)methyl)phenoxy)butyl)cyclopropanecarboxamide]
13 | 39 | 73 | 1 | 90 | O=C(NCCCCOc1ccc(Oc2c(-c3ccc(O)cc3)sc3cc(O)ccc23)cc1)C1CC(F)(F)C1 [Example 29, 3,3-Difluoro-N-(4-(4-((6-hydroxy-2-(4-hydroxyphenyl)benzo[b]thiophen-3-yl)oxy)phenoxy)butyl)cyclobutanecarboxamide]
14 | 48 | – | – | – | O=C(NCCCCOc1ccc(C(=C2C3CC4CC(C3)CC2C4)c2ccc(O)cc2)cc1)C1CC1(F)F (stereo not drawn) [Example 32, N-(4-(4-(Adamantan-2-ylidene(4-hydroxyphenyl)methyl)phenoxy)butyl)-2,2-difluorocyclopropanecarboxamide]
15 | 61 | – | – | – | O=C(CCC1CCCCC1)NCCCCOc1ccc(Oc2c(-c3ccc(O)cc3)sc3cc(O)ccc23)cc1 [Example 30, 3-Cyclohexyl-N-(4-(4-((6-hydroxy-2-(4-hydroxyphenyl)benzo[b]thiophen-3-yl)oxy)phenoxy)butyl)propanamide]
